One assay has as its target T1, NK-1-Rezeptor (Cavia porcellus, UniProt P30547).
T1 construct: Ringpräparaten der Aorta von Pirbright-White Meerschweinchen; from tissue; host or cells: isolated aorta rings of Pirbright-White guinea pigs
Description: Functional NK-1 antagonism on isolated guinea pig aorta rings in vitro (inhibition of Substanz P induced tone relaxation). Details: species or system Pirbright-White Meerschweinchen. As to conditions: aorta rings toned with Phenylephrin, stimulated with 0,01 µmol Substanz P; read-out: IC50 (halbmaximale Hemmung der Tonusrelaxation). From the text: 3. Bestimmung des funktionellen NK-1-Antagonismus der Testsubstanzen an isoliertem Gewebe vom Meerschweinchen in vitro
Die NK-1-Rezeptor-antagonisierende Wirkung der Testsubstanzen wurde an isolierten, in einer oxygenierten Nährlösung gehaltenen Ringpräparaten der Aorta von Pirbright-White Meerschweinchen in vitro gemessen. Bestimmt wird die Hemmung der nach Stimulierung mit dem NK-1-Agonisten Substanz P hervorgerufenen Tonusrelaxation der Aortapräparate durch die Testsubstanzen.
Zur Messung der Kontraktion der Gefäßmuskulatur werden die Präparate an einem Haken fixiert, durch einen Faden mit einem Kraftmessungsgerät verbunden und die Kontraktionen werden jeweils an einem Schreiber registriert. Die Aortapräparate werden mit Phenylephrin tonisiert. Anschließend werden die NK-1-Rezeptoren der Präparate vor und nach der Gabe der Prüfsubstanz mit 0,01 µmol Substanz P stimuliert, wodurch eine Relaxation des Tonus herbeigeführt wird. Die Relaxationen vor und nach Gabe der Prüfsubstanz werden in Prozent quantifiziert. Als Kenngröße wird die Konzentration der halbmaximalen Hemmung (= IC50) errechnet, welche diejenige Konzentration angibt, bei der eine halbmaximale Hemmung der Tonusrelaxation eintritt.
In diesem Testmodell zeigten die in der folgenden Tabelle 2 aufgeführten Beispielsubstanzen die angegebenen IC50-Werte für die halbmaximale Hemmung : Tabelle 2: Funktioneller NK-1-Antagonismus der Testsubstanzen an isoliertem Meerschweinchen-Gewebe

Another assay has as its target T2, humanen NK-2-Rezeptoren (Homo sapiens, UniProt P21452).
T2 sequence (P21452 1-398): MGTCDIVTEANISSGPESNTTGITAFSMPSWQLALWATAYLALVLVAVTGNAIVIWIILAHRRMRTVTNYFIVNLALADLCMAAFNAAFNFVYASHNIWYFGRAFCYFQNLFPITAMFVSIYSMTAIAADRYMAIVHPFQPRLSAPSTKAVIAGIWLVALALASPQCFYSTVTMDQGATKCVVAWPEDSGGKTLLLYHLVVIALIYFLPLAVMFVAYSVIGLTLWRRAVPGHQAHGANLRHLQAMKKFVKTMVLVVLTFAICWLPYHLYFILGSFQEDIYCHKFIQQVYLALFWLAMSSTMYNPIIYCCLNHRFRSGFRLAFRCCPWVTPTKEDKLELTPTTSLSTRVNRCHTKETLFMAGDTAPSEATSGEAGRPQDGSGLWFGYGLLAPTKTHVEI
The experiment in a line: Binding of test substances to NK-2 receptors in vitro (SR 48,968 displacement, CHO cell membranes). Particulars: SR 48,968 as ligand; membranes of CHO cells expressing human NK-2 receptor; read-out: Ki (Affinität der Testsubstanzen zu humanen NK-2-Rezeptoren). From the text:
2. Bestimmung des Bindungsvermögens der Testsubstanzen an NK-2-Rezeptoren in vitro
Die Affinität der Testsubstanzen zu humanen NK-2-Rezeptoren wird in vitro gemessen. Bestimmt wird die Hemmung der Bindung der Verbindung SR-48,968 an NK-2-Rezeptoren. SR-48,968 ist eine als spezifischer NK-2-Antagonist bekannte synthetisch hergestellte Verbindung.
Die Rezeptor-Bindungsstudien werden mit SR 48,968 als Ligand durchgeführt. Die Versuchsdurchführung entspricht der im pharmakologischen Test zur Bestimmung des Bindungsvermögens der Testsubstanzen an NK-1-Rezeptoren in vitro angegebenen Methode. Im Unterschied hierzu werden nunmehr aber verschiedene Proben einer Membranpräparation von CHO-Zellen verwendet, welche den humanen NK-2-Rezeptor exprimieren. In diesem Testmodell zeigten die in der folgenden Tabelle 1 aufgeführten Beispielsubstanzen die angegebenen Ki-Werte für die Affinität zu humanen NK-2-Rezeptoren: Tabelle 1: Affinität der Testsubstanzen zu humanen NK-2-Rezeptoren

In assay [1] the test system is durch Substanz P induzierter Blutdrucksenkung. The experiment in a line: Substance P antagonistic effect in vivo (Substanz P induced hypotension in guinea pigs). More on the design: species or system Meerschweinchen. Particulars: Cavia porcellus, 1 h, 50 pmol Substanz P i.v., evaluated after 60 minutes, read-out: ED50 (50%ige Hemmung der Substanz P-induzierten Blutdrucksenkung). From the text: 4. Bestimmung der Substanz-P-antagonistischen Wirkung der Testsubstanzen in vivo.
Zum Nachweis der Substanz-P-antagonistischen Wirkung der Testsubstanzen wurde als Standardtestmodell für Substanz-P-induzierte pharmakologische Effekte die durch Substanz-P-Applikation hervorgerufene Hypotension in Meerschweinchen verwendet. Es wurde die Hemmwirkung der Testsubstanzen gegenüber durch Substanz P induzierter Blutdrucksenkung nach intravenöser (= i.v.) und intraduodenaler (= i.d.) Applikation der Testsubstanzen bestimmt.
Männlichen Meerschweinchen werden in Narkose (Ketamin 67 mg/ kg, Xylazine 13 mg/kg) jeweils ein Katheter in eine Arteria Carotis Communis und in eine Vena Jugularis implantiert. Der arterielle Katheter dient zur Blutdruckmessung. Die Messung erfolgt mit einem Statham 23d/B Druckaufnehmer. Über den venösen Zugang erfolgt die Gabe von Substanz P bzw. bei intravenöser Gabe auch die Applikation der Testsubstanz. Nach einer Äquilibrierungsphase von 20 Minuten werden 50 pmol/Tier Substanz P als Bolus i.v. appliziert. Danach erfolgt die Gabe der Testsubstanz. Bei der i.v. Untersuchung wird die Testsubstanz in Dosierungen von 0.1, 0.46 bzw. 1.0 µmol/kg einer Gruppe von jeweils 4 bis 6 Tieren intravenös appliziert. Die Kontrollgruppe erhält die entsprechende Menge einer physiologischen Kochsalzlösung. […]

For another assay, the target named is T3, humanen NK-1-Rezeptoren (Homo sapiens, UniProt P25103).
T3 construct: expressed in transfected cells; host or cells: CHO cells (membrane preparation)
T3 sequence (P25103 whole entry): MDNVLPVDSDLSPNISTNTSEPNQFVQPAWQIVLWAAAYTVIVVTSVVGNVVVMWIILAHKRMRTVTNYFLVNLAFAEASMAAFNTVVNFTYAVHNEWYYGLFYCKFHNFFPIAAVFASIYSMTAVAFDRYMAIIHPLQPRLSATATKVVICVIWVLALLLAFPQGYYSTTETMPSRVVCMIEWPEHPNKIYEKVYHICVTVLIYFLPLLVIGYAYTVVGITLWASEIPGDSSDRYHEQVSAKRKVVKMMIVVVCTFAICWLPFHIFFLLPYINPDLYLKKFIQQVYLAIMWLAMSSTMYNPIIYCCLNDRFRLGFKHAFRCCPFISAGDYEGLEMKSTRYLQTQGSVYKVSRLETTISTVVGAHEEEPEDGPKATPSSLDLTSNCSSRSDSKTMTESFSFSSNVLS
The experiment in a line: Binding of test substances to NK-1 receptors in vitro ([3H]-Substanz P displacement, CHO cell membranes). Particulars: [3H]-Substanz P as ligand; membranes of CHO cells expressing human NK-1 receptor; Ki calculated from IC50; read-out: Ki-Wert für die Affinität zu humanen NK-1-Rezeptoren. From the text: 1. Bestimmung des Bindungsvermögens der Testsubstanzen an NK-1-Rezeptoren in vitro.
Die Affinität der Testsubstanzen zu humanen NK-1-Rezeptoren wird in vitro gemessen. Bestimmt wird die Hemmung der Bindung des physiologischen Neurokinins (Substanz P) an Neurokinin-1-Rezeptoren.
Die Rezeptor-Bindungsstudien werden mit [^3H]-Substanz P als Ligand durchgeführt. Für den Bindungsversuch werden verschiedene Proben einer Membranpräparation von CHO-Zellen (= […] des chinesischen Hamsters, […]), die den humanen NK-1-Rezeptor exprimieren, mit einer Lösung des markierten Liganden inkubiert, wobei die Inkubationsansätze keine Testsubstanz oder Zusätze unterschiedlicher Konzentrationen an Testsubstanz enthalten. Anschließend wird in den Proben jeweils eine Trennung von gebundenem und freiem Liganden mit Hilfe einer Glasfiber-Filtration vorgenommen. Die im Filter verbleibende Fraktion wird mehrmals mit Pufferlösung gewaschen und anschließend wird die Radioaktivität der im Filter verbliebenen Fraktion mit einem Beta-Scintillationszähler gemessen. Es wird als IC50 der jeweiligen Testsubstanz diejenige Konzentration bestimmt, welche eine halbmaximale Verdrängung des gebundenen Liganden bewirkt. Aus dieser wird die entsprechende Inhibitionskonstante (Ki-Wert) der Testsubstanz berechnet. […]

Here are results for three compounds from patent EP0899270B1, “Indolylmethyl-N,N'-bisacylpiperazines as neurokinine receptor antagonists” (Solvay Pharmaceuticals GmbH, priority 1997, dated 1999).

Read-outs that look alike come from different tables or passages of the source.

T1 sequence (P30547 whole entry): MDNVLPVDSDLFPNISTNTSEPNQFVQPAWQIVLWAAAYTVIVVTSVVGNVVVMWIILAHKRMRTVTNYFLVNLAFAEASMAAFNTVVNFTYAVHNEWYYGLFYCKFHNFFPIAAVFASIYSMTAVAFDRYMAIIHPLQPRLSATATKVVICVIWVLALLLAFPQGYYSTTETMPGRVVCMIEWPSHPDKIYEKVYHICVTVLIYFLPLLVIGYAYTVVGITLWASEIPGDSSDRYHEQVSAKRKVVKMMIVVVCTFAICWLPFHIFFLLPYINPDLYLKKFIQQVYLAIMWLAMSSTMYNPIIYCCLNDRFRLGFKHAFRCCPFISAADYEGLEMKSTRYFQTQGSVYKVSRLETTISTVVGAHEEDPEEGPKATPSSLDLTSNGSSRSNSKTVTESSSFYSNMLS

Take `O=C(NCCNCc1ccc(F)cc1)N1CCN(C(=O)c2cc(C(F)(F)F)cc(C(F)(F)F)c2)C(Cc2c[nH]c3ccccc23)C1` (stereo not drawn) [Beispiel 3]: at NK-1-Rezeptor, the IC50 was 1.5 nM. For the same compound, the Ki on humanen NK-2-Rezeptoren is 300 nM.
Take `COc1ccccc1CNCCNC(=O)N1CCN(C(=O)c2cc(C(F)(F)F)cc(C(F)(F)F)c2)[C@H](Cc2c[nH]c3ccccc23)C1` [Beispiel 1, (2R)-1-[3,5-Bis(trifluormethyl)benzoyl]-2-(1H-indol-3-ylmethyl)-4-(2-[N-(2-methoxybenzyl)aminoethyl]aminocarbonyl}piperazin]: at NK-1-Rezeptor, the IC50 is 1 nM. In addition, the ED50 in assay [1] (i.d.-Applikation) came to 0.08 µmol/kg; in assay [1] (iv, i.v.-Applikation), 0.2 µmol/kg. Besides, the Ki at humanen NK-2-Rezeptoren is 60 nM; at humanen NK-1-Rezeptoren, 2.1 nM.
Regarding `COc1ccccc1CN(C)CCNC(=O)N1CCN(C(=O)c2cc(C(F)(F)F)cc(C(F)(F)F)c2)C(Cc2c[nH]c3ccccc23)C1` (stereo not drawn) [Beispiel 2], the IC50 at NK-1-Rezeptor stood at 1.2 nM. In addition, on humanen NK-2-Rezeptoren, the inhibition constant (Ki) came out at 50 nM.
